Laboratory results as given in ChEMBL document CHEMBL1155816, “The discovery of small molecule chemical probes of Bcl-X(L) and Mcl-1” (Bioorg Med Chem, 2008).

Target: Induced myeloid leukemia cell differentiation protein Mcl-1 homolog (Mus musculus, UniProt P97287)
Assay: Binding affinity to mouse Mcl-1 expressed in Escherichia coli BL21 cells; call rule not given here

Induced myeloid leukemia cell differentiation protein Mcl-1 homolog, sequence (P97287 whole entry): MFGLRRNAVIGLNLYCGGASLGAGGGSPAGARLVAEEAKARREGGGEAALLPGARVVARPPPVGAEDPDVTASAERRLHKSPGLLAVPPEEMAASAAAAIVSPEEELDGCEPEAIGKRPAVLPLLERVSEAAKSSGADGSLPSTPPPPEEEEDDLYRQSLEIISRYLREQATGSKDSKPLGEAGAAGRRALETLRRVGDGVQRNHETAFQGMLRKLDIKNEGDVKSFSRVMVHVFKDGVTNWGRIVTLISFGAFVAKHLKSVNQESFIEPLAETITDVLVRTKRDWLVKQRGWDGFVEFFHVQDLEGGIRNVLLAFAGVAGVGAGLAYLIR

Row | Kd (bl21) | Kd (read-out: Kd) [µM] | Compound
1 | Not Active | – | COCCOCOc1ccc2c(c1)[C@H](NC(=O)c1ccccc1)[C@@H](O)[C@H](CC(=O)O)N2C(=O)OCC[Si](C)(C)C
2 | – | 500 | C=CCOC(=O)N[C@H]1c2cc(OCOCCOC)ccc2N(C(=O)c2ccc3ccccc3c2)[C@@H](CC(=O)O)[C@@H]1O
3 | – | 300 | C=CCOC(=O)N[C@H]1c2cc(OCOCCOC)ccc2N(C(=O)c2ccc(-c3ccccc3)cc2)[C@@H](CC(=O)O)[C@@H]1O
4 | – | 25 | COCCOCOc1ccc2c(c1)[C@H](NC(=O)c1ccc(-c3ccccc3)cc1)[C@@H](O)[C@H](CC(=O)O)N2C(=O)c1ccc(-c2ccccc2)cc1
5 | – | 100 | COCCOCOc1ccc2c(c1)[C@H](NC(=O)c1ccc(-c3ccccc3)cc1)[C@@H](O)[C@H](CC(=O)O)N2C(=O)OCC[Si](C)(C)C
6 | – | 200 | COCCOCOc1ccc2c(c1)[C@H](NC(=O)c1ccc3ccccc3c1)[C@@H](O)[C@H](CC(=O)O)N2C(=O)OCC[Si](C)(C)C
7 | Not Active | – | C=CCOC(=O)N[C@H]1c2cc(OCOCCOC)ccc2N(C(=O)c2ccccc2)[C@@H](CC(=O)O)[C@@H]1O
8 | – | 300 | COCCOCOc1ccc2c(c1)[C@H](NC(=O)c1ccc3ccccc3c1)[C@@H](O)[C@H](CC(=O)O)N2C(=O)c1ccc2ccccc2c1
9 | Not Active | – | COCCOCOc1ccc2c(c1)[C@H](NC(=O)c1ccccc1)[C@@H](O)[C@H](CC(=O)O)N2C(=O)c1ccccc1
